pIC50: −log10 of the molar value.
Tests used:
Kv1.3 potassium channel = target: T1, Kv1.3 potassium channel (Homo sapiens, UniProt P22001); experiment: Kv1.3 potassium channel blocker activity, automated whole-cell patch clamp (Patchliner); assay type: cell-based; conditions: CHO-K1 cells stably expressing Kv1.3; whole cell current inhibition; read-out: Kv1.3_IC50
T1 construct: expressed in transfected cells
How it was run: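 CHO-K1 cells stably expressing Kv1.3, automated whole-cell patch clamp. Currents evoked by 100 ms steps from −90 mV holding to +40 mV at 0.1 Hz, sampled at 10 kHz unfiltered, P/4 leak subtraction; peak current inhibition measured, compound incubation ≤10 s between pulse trains.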

hERG channel = hERG channel (Homo sapiens, UniProt Q12809); experiment: hERG electrophysiology, automated whole-cell patch clamp (Patchliner)
hERG channel, sequence (Q12809 whole entry): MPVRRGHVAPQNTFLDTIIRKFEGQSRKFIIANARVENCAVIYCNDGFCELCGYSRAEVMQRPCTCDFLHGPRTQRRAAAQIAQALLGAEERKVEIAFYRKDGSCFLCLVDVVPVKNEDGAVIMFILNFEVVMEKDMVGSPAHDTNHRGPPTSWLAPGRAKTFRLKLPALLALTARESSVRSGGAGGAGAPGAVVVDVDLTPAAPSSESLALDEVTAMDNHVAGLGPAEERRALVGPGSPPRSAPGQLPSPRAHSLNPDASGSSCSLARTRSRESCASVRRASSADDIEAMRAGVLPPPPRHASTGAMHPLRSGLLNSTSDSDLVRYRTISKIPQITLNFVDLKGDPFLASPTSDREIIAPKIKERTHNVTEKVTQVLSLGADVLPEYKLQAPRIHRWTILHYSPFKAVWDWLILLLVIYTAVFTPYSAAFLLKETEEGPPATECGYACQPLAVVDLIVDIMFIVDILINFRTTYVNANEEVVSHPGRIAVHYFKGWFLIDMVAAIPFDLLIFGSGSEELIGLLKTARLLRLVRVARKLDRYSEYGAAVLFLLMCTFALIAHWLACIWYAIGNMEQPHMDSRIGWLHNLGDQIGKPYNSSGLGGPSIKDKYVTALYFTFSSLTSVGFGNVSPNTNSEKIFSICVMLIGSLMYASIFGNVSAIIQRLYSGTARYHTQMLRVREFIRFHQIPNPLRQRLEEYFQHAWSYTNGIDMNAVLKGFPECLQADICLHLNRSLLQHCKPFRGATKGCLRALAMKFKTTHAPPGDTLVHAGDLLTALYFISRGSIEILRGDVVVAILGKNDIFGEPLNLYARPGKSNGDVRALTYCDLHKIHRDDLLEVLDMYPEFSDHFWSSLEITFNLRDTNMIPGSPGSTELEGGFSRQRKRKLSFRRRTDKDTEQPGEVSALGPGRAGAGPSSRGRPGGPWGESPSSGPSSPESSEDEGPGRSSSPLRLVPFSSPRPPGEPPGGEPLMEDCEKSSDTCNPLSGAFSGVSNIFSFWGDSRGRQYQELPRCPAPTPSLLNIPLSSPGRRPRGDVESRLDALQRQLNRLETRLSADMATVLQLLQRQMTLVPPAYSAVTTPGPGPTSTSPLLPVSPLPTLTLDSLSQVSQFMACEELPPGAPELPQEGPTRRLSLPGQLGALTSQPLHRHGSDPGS

T1 sequence (P22001 whole entry): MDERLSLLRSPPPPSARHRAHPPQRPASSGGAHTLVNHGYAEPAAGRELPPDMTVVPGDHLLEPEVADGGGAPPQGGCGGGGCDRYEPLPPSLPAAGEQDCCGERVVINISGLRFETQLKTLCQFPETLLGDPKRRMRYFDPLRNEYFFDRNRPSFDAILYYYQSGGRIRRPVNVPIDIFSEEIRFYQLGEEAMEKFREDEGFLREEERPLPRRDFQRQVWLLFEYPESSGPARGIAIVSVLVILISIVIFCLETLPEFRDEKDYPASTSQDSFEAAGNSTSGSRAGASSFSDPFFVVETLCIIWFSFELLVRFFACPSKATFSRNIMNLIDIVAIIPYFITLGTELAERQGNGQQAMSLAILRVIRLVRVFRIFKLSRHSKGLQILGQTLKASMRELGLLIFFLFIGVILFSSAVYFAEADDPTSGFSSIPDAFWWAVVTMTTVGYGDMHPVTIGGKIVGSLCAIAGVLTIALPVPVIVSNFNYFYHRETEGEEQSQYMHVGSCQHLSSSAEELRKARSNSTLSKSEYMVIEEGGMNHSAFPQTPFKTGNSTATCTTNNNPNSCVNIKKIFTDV

Row | pIC50 (Kv1.3 potassium channel) | Structure (SMILES) | pIC50 (hERG channel)
1 | > 6.30 | N#CC1(C(=O)N2CCC(C(N)c3cc(Cl)c(Cl)cc3O)CC2)CC1 (stereo not drawn) [Compound 48, 1-(4-(amino(4,5-dichloro-2-hydroxyphenyl)methyl)piperidine-1-carbonyl)cyclopropanecarbonitrile Trifluoroacetic Acid] | > 4.52
2 | > 5.00 | N[C@@H](c1c(O)ccc2ccccc12)C1CCN(C(=O)[C@H](O)CO)CC1 [Compound 191, (2R)-1-[4-[(R)-amino(2-hydroxynaphthalen-1-yl)methyl]piperidin-1-yl]-2,3-dihydroxypropan-1-one Trifluoroacetic Acid] | < 4.52
3 | > 6.30 | N[C@@H](c1cc(Cl)c(Cl)cc1O)C1CCN(C(=O)c2cnc(=O)[nH]c2)CC1 [Compound 277, 5-[4-[(R)-amino(4,5-dichloro-2-hydroxyphenyl)methyl]piperidine-1-carbonyl]-1H-pyrimidin-2-one trifluoroacetic acid] | < 4.52
4 | > 5.00 | N[C@@H](c1cc(Cl)c(Cl)cc1O)C1CCN(C(=O)c2cnc[nH]2)CC1 [Compound 164, 2-[(R)-amino[1-(1H-imidazole-4-carbonyl)piperidin-4-yl]methyl]-4,5-dichlorophenol formic acid] | < 4.52
5 | > 5.00 | NC(c1cc(Cl)c(Cl)cc1O)C1CCNCC1 (stereo not drawn) [Compound 1, 2-(amino(piperidin-4-yl)methyl)-4,5-dichlorophenol Trifluoroacetic Acid] | < 4.52
6 | > 5.00 | N[C@@H](c1cc(Cl)c(Cl)cc1O)C1CCN(c2cn[nH]c2)CC1 [Compound 149, 2-[(R)-amino[1-(1H-pyrazol-4-yl)piperidin-4-yl]methyl]-4,5-dichlorophenol Trifluoroacetic Acid] | > 4.52
7 | > 5.00 | Cc1n[nH]c(C)c1C(=O)N1CCC([C@@H](N)c2cc(Cl)c(Cl)cc2O)CC1 [Compound 159, 2-[(R)-amino[1-(3,5-dimethyl-1H-pyrazole-4-carbonyl)piperidin-4-yl]methyl]-4,5-dichlorophenol] | < 4.52
8 | > 5.00 | N[C@@H](c1c(O)cc(Cl)c(Cl)c1Cl)C1CCN(C(=O)[C@H](O)CO)CC1 [Compound 188, (R)-1-(4-((R)-amino(2,3,4-trichloro-6-hydroxyphenyl)methyl)piperidin-1-yl)-2,3-dihydroxypropan-1-one Trifluoroacetic Acid] | < 4.52

Row | Structure (SMILES) | pIC50 (Kv1.3 potassium channel) | pIC50 (hERG channel)
9 | NC(c1cc(Cl)c(Cl)cc1O)C1CC2CCC(C1)N2 (stereo not drawn) [Compound 42, 2-[amino(8-azabicyclo[3.2.1]octan-3-yl)methyl]-4,5-dichlorophenol Trifluoroacetic Acid] | > 5.00 | < 4.52
